{
  "source": "patent US7135299B2",
  "about": "“Catalase-inactivating compounds and the use thereof” (priority 2001, dated 2006)",
  "key": {"[1]": {"target": "T1, catalase from ox liver (as active endogenous catalase) (Bos taurus, UniProt P00432)", "T1 construct": "catalase from ox liver (as active endogenous catalase); from tissue; host or cells: ox liver", "T1 sequence (P00432 2-527 limits assumed)": "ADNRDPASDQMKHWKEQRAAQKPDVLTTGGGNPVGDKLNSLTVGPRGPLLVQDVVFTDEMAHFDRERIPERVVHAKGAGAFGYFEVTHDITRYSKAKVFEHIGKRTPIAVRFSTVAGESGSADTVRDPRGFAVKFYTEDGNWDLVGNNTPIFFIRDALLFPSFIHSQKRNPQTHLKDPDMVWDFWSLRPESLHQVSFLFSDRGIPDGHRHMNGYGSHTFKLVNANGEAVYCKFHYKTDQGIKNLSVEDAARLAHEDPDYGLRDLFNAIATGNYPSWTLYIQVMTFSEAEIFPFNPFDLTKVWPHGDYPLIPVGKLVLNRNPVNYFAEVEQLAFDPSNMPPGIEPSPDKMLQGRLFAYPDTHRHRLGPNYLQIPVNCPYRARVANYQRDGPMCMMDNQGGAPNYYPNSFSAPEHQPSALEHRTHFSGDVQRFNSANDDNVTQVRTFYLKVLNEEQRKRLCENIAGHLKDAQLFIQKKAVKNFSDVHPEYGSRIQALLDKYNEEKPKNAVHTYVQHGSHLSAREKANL", "assay": "Catalase inactivation test: oxygen evolution from hydrogen peroxide measured as pressure in a closed tube, active endogenous catalase", "assay_type": "biochemical", "settings": "35 units of catalase from ox liver in 1 ml sample, 7 ml solution of the title compound, 0.23 g hydrogen peroxide 30%, 15 minutes at room temperature", "text": "(§1) The following reagents are provided: • catalase from ox liver (as active endogenous catalase) • catalase from Aspergillus niger (as active intracellular catalase) • catalase from microorganisms^(*) (as active intracellular catalase) • antifoam (RD® from Dow Corning) • hydrogen peroxide (Perhydrol® 30% from Merck) ^(*)various bacteria and/or fungi\n(§2) Each sample contains in each case 35 units of catalase from ox liver or from Aspergillus niger or from microorganisms per ml of distilled water. The 1 ml sample is put in a 15 ml tube (Vacutainer® 16×125 mm from Becton Dickinson), and in each case 7 ml of the aforementioned solution of the title compound are added and mixed therewith (Vortex® Genie 2 mixer from Merck). Then 1 drop of said antifoam is added and mixing is repeated. Thereafter 0.23 g of said hydrogen peroxide is added, and the tube is immediately made gas-tight with a stopper made of chemical-resistant elastic plastic (Viton® from Du Pont de Nemours), briefly (for a few seconds) ventilated with the aid of a hollow needle (Ø1 mm hypodermic needle) piercing the stopper and, immediately thereafter, closed gas-tight again by withdrawing the hollow needle from the stopper. The tube which has been closed gas-tight is left to stand at room temperature for 15 minutes. […] The pressure in the tube is then measured (cf. the description hereinafter of the preferred pressure gage). […]"}, "[2]": {"test_system": "catalase from Aspergillus niger / catalase from microorganisms (as active intracellular catalase)", "assay": "Catalase inactivation test: oxygen evolution from hydrogen peroxide measured as pressure in a closed tube, active intracellular catalase", "assay_type": "biochemical, Aspergillus niger; various bacteria and/or fungi", "settings": "35 units of catalase from Aspergillus niger or from microorganisms in 1 ml sample, 7 ml solution of the title compound, 0.23 g hydrogen peroxide 30%, 15 minutes at room temperature", "text": "as §1, §2"}},
  "data": [
    {"substance": "CH2═CH—COO—SO2—O—C12H25", "values": [
      {"measurement": "catalase activity by oxygen evolution (pressure in the tube)", "setting": "[1]", "result": "the pressure in the tube does not increase"},
      {"measurement": "catalase activity by oxygen evolution (pressure in the tube)", "setting": "[2]", "result": "the pressure in the tube increases"}
    ]}
  ]
}
